Legend:
[1] = system: human prostatic carcinoma cells, PC-3 (subcutaneous xenografts); assay: subcutaneous PC-3 xenografts in nude mice, tumor volume; assay type: in vivo, NCr athymic nude mice
Protocol: (§1) Pathogen-free 4 to 6 week-old male NCr athymic nude mice (Taconic, Germantown, N.Y.) were housed in sterilized, filter-topped cages kept in laminar flow isolators (Forma Scientific, Marietta, Ohio), and fed autoclaved food and water ad libitum. Four animals were housed in each cage. Mice were acclimated to the vivarium for one week prior to their use in study protocols. All procedures involving the mice were performed under sterile conditions in a laminar flow hood (Forma Scientific). All studies were approved by the institutional animal care and use committee.
(§2) Human PC-3 prostate cancer cells (2×10^6 cells; American Type Culture Collection CRL-1435) were inoculated subcutanteously into the flanks of nude mice in 0.1 ml HBSS (Hank's balanced salt solution) (Life Technologies). For implantation of orthotopic 201T cells, animals were fully anesthetized in a Harvard small animal anesthesia chamber using nebulized Metafane (Pitman Moore, Inc., Washington Crossing, N.J.). […] The needle was advanced through the chest wall into the lung tissue, and the tumor cell inoculum of 2×10^6 cells was then dispersed in a final volume of 0.1 ml HBSS/Matrigel (1:1 ratio). Animals were allowed to recover from anesthesia for approximately 10 min under heat lamps to maintain body temperature. The orthotopic implantation technique is further described in Hamide et al., 1997. For tumors implanted subcutaneously, tumors were measured in a blind fashion with dial calipers, and the volume was calculated using the formula ½*π(W*L*H).
Potential anti-angiogenic and anti-tumor effects of the PAF antagonist BN-50730 were tested on human tumor xenografts in the NCr athymic nude mice. Thirty mice were implanted with subcutaneous human prostatic carcinoma cells, PC-3, at day 0, and were randomized into three groups. Mice were treated either with a placebo, 30 mg/kg BN-50730, or 60 mg/kg BN-50730 at days 2, 4, 6, 8, 10, and 12 as shown in the schedule of FIG. 2b. Animals were sacrificed at day 13, 17, 21 and 28, and the volumes of the subcutaneous tumors were measured using dial calipers and the formula ½*π(W*L*H) as described in Example 1.
In a separate experiment to determine the effects of a high dose of LAU-8080 dissolved in 2-hydroxypropyl-β-cyclodextran (instead of DMSO) on PC-3 xenografts, mice were treated as shown in FIG. 4b. Tumors were implanted subcutaneously at day 0. The mice were then divided into two groups to receive injections of either a placebo or 120 mg/kg LAU-8080 on days 1, 3, 5, 8, 10, and 12. Mice were sacrificed on days 6, 8, 11, 13, 15, 18, 20, 21, and 25; and the volumes of the tumors were measured as described above.
Tumors were implanted at day 0. The tumors were allowed to expand to 100 mm^3 before treatment was initiated as shown in the schedule in FIG. 10b. Tumor measurements were begun on day 9. Treatments of the different groups were on days 13, 15, 17, 20, 22, 24, 27, 29, and 31. Tumor measurements were taken on days 13, 16, 20, 24, 27, 31, 37, and 40.

[2] = system: human 201T lung adenocarcinoma cells (orthotopic xenografts); assay: orthotopic 201T xenografts in nude mice, mediastinal block weight; assay type: in vivo, NCr athymic nude mice; conditions: 60 mg/kg at days 2, 4, 6, 8, 10, 12, sacrifice day 56
Protocol: as §1
as §2, with “Animals were allowed to recover from anesthesia for approximately 10 min under heat lamps to maintain body temperature. The orthotopic implantation technique is further described in Hamide et al., 1997.” left out, “½*π(W*L*H). […]” for “½*π(W*L*H).”

201T cells = assay: in vitro cell growth assay, [3H]thymidine incorporation, 201T; assay type: cell-based, human
Protocol: The human prostatic carcinoma cell line PC-3 was grown in RPMI 1640 (Life Technologies, Grand Island, […].) supplemented with 10% fetal bovine serum (“FBS”, Life Technologies). The human cell line 201T was established from a poorly differentiated lung adenocarcinoma, as previously described using the method of J. M. Siegfried et al., “Secretion of autocrine growth factors by cultured lung tumors: effects on neoplastic lung epithelial cells,” Lung Cancer, vol. 4, pp. 205–209 (1988). See also J. P. Hamide et al., “Percutaneous implantation of non-small cell lung carcinoma: technique and observations,” Academ. Radiolo., vol. 4, pp. 629–633 (1997). The cell line was grown in a medium conditioned for 48 hours by the cell line A549 (ATCC CCL-185) containing 1% FBS (HyClone Laboratories, Logan, Utah) as previously described in J. M. Siegfried, “Culture of primary lung tumors using medium conditioned by a lung carcinoma cell line,” J. Cell. Biochem., vol. 41, pp. 91–95 (1988). This medium is referred to as CM+1% FBS.
PC-3 cells were exposed to 0, 0.1, 1, 2.5, 5, and 10 μM BN-50730 in RPMI medium supplemented with 10% FBS and [^3H]thymidine (Amersham Life Science, Arlington Heights, Ill.). 201T cells were exposed to 0, 0.1, 1, 2.5, 5, and 10 μM BN-50730 in CM+1% FBS supplemented with [^3H]thymidine. […] PC-3 and 201T cells were also exposed to 10 μM BN-50730 for 24, 48, 72 and 144 hours, and cell growth assessed as above.

Structure (SMILES): COc1ccc(NC(=O)N2CCc3c(sc4c3C(c3ccccc3Cl)=NCc3nnc(C)n3-4)C2)cc1 [BN-50730, tetrahydro-4,7,8,10 methyl-1 (chloro-2 phenyl)-6 (methoxy-4 phenyl-carbomoyl)-9 pyrido [4′,3′-4,5] thieno [3,2-f] triazolo-1,2,4[4,3-α]diazepine-1,4]
- tumor size (volume) of subcutaneous PC-3 xenografts ([1]; 30 mg/kg or 60 mg/kg at days 2, 4, 6, 8, 10, 12, measured day 13, 17, 21, 28, vs placebo, p<0.001): significant dose-dependent reduction in tumor size
- tumor volume of subcutaneous PC-3 xenografts, high dose ([1]; 120 mg/kg in 2-hydroxypropyl-β-cyclodextran on days 1, 3, 5, 8, 10, 12, vs placebo, p=0.0001, F-test): significantly smaller tumors
- time at which tumors began to increase in size ([1]; 120 mg/kg on days 1, 3, 5, 8, 10, 12, PC-3 xenografts): did not begin to increase in size until after treatment was stopped at day 12
- tumor size, BN-50730-treated vs IFN-2a-treated mice ([1]; established PC-3 xenografts, 120 mg/kg vs 1,000 U, p=0.089, F-test): no significant difference
- tumor size of established PC-3 xenografts vs control animals ([1]; tumors expanded to 100 mm^3 before treatment, treatment days 13-31, 120 mg/kg BN-50730 and/or 1,000 U IFN-2a, p<0.001, F-test): significantly smaller tumors
- mediastinal block weight, placebo-treated vs LAU-8080-treated ([2]; p=0.011, Student's t-test): significantly larger in placebo-treated animals
- mediastinal weight vs control litter mates without tumor cell implantation ([2]; p=0.800, Student's t-test): the same as for control liter mates
- 201T cell growth, time course: onset of growth inhibition (201T cells; 10 μM, six-day time course): growth inhibition was manifested after 72 hr of exposure
- 201T cell growth, time course curves treated vs untreated (201T cells; 10 μM, up to 144 hr, p=0.081, F-test): not statistically different
- 201T cell growth, concentration response (201T cells; 0.01-10 μM for four days, p<0.005 at or above 1.0 μM): concentration-dependent reduction in growth

From patent publication US6979682B2, “Platelet-activating factor antagonist inhibition of angiogenesis and tumor growth induced by basic fibroblast” (Board of Supervisors of Louisiana State University and …, priority 2001, dated 2005)
